{"source": "paper PMC4210216", "about": "“Isolation, Purification and Molecular Mechanism of a Peanut Protein-Derived ACE-Inhibitory Peptide” (PLoS ONE, 2014)", "key": {"ACE": {"system": "ACE", "parameters": "method as in 3 sources, ref 52 = [52]; PMID 19886677; doi:10.1021/jf901787e; 52 Guang C , Phillips RD ( 2009 ) Purification, activity and sequence of angiotensin I converting enzyme inhibitory peptide from alcalase hydrolysate of peanut flour . Journal of agricultural and food ||| ref 43 = [43]; PMID 16680798; doi:10.1002/psc.758; 43 Li GH , Wan JZ , Le GW , Shi YH ( 2006 ) Novel angiotensin I-converting enzyme inhibitory peptides isolated from Alcalase hydrolysate of mung bean protein . Journal of Peptide Science 12 : 509 – 51 ||| ref 45 = [45]; 45 Li GH , Le GW , Shi YH , Shrestha S ( 2004 ) Angiotensin I–converting enzyme inhibitory peptides derived from food proteins and their physiological and pharmacological effects . Nutrition Research", "conditions": "cited from earlier work; for mode of ACE inhibition: from human serum trypsin hydrolysate"}, "[1]": {"system": "spontaneously hypertensive rats (SHRs)", "test": "Long-term antihypertensive activity in SHRs (28 days, SBP)", "assay_type": "in vivo, rat", "conditions": "male SHR, captopril 40 mg/kg BW", "experimental": "The in vivo tests for antihypertensive activity of peanut peptide was conducted using a previous method, and whole tests were conducted in Chinese Medicine Experiment Center of Hubei College of Traditional Chinese Medicine, authorized by SATCM (State Administration of Traditional Chinese Medicine, China). The male spontaneously hypertensive rats (SHRs) was used for the experimental model while the average weight of each rat was between 210 and 240 g and four rats were numbered as one group for feeding. These rats had free access to food and drink in their cages located in a 25°C room temperature with 12 h of light cycle. After 1 week for adaptation to this environment, the determination of blood pressure was conducted and the comparison of different group was investigated. The SHRs were randomly divided into five groups, named blank control group, low-dose group (100 mg/kg body weight (BW)), intermediate-dose group (500 mg/kg BW), high-dose group (1000 mg/kg BW) and drug control group (40 mg Captopril/kg BW).\nLong-term antihypertensive activity: Through the same method of sample preparation, these SHRs were feeded at the same time (9∶00 am–10∶00 am) of each day and the feeding continued for 28 days. […] Each SHR was measured for three times. […]"}, "[2]": {"biological_target": "T1, ACE (protease from rabbit lung) (Oryctolagus cuniculus, UniProt P12822)", "T1 construct": "ACE (protease from rabbit lung); purchased Sigma Chemical Co., St. Louis, MO, USA; host or cells: rabbit lung (tissue-derived)", "T1 sequence (P12822 34-1310)": "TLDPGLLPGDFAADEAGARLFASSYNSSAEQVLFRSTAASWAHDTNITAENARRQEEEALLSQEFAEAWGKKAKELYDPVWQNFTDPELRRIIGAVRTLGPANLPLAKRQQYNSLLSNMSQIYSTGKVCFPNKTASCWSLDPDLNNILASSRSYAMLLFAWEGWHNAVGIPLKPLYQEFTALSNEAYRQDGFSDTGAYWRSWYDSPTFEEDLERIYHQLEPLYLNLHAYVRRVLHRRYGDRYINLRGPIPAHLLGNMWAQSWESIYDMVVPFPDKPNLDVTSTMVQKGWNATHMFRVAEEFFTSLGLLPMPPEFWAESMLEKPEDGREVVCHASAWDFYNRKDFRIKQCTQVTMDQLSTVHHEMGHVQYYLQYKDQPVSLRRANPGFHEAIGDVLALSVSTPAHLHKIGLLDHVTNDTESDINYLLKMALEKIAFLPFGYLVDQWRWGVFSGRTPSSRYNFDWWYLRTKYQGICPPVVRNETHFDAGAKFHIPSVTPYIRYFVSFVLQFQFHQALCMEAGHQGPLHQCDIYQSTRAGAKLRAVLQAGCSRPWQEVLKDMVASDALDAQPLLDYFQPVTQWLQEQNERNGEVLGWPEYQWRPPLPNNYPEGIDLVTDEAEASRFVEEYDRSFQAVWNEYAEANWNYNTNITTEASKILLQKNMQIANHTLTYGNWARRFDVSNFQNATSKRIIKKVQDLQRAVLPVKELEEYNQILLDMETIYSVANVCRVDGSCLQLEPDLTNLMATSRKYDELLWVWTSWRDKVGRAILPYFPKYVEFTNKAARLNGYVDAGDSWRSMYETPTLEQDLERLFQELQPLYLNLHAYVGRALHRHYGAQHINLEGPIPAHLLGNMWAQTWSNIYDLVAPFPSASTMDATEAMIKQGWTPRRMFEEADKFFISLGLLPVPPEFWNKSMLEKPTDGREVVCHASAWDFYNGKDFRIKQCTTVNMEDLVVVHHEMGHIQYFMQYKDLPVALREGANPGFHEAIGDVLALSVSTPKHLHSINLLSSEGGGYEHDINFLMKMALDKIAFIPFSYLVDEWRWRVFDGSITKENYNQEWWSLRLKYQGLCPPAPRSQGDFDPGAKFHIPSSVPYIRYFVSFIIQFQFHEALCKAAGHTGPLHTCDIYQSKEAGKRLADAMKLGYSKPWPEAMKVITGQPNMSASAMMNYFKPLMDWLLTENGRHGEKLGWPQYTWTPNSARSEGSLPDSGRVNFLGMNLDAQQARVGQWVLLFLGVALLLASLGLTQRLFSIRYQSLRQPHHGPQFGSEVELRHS", "test": "ACE inhibiting activity (in vitro tests), HHL substrate, HPLC", "assay_type": "biochemical", "conditions": "HEPES pH 8.3, 37°C, 30 min", "text": "PPI was purchased from Lanshan Group (Shandong, China). The following commercial enzymes were obtained: Alcalase (protease)-(Novo Industri A/S, Bagsvaerd, Denmark); N120P (protease)-(Kerry Co., Tralee, Ireland) and ACE (protease from rabbit lung)-(Sigma Chemical Co., St. Louis, MO, USA). Hippuryl-histidyl-leucine (HHL) was purchased from Sigma Chemical Co. (St. Louis, MO, USA). Methyl Cyanide (Merck & Co., Inc., Rahway, NJ, USA) and trifluoroacetic acid (TFA) (Fluka Co., Buchs, Switzerland) were purchased and were of chromatographic grade. All the other materials were of analytical grade and were used as received.\nDetermination of ACE inhibiting activity (in vitro tests)\nACE inhibiting activity was measured using Cushman and Cheung’s method with slight modification, [34]. Specifically, 20 µL of 4-hydroxyethylpiperazine ethane sulfonic acid (HEPEs) buffer solution (pH 8.3) was mixed with 20 µL sample solution in a 0.5 ml centrifuge tube. Then, 15 µL ACE solution was added into this tube and warmed at 37°C for 3 min. […]\nThe ACE inhibiting activity (%) was expressed in terms of hippuric acid content and was calculated using (1). […]\nThe dried peanut peptide powder having molecule weight below 1 kDa was first dissolved in water to make a peptide solution with 100 mg/ml concentration. […] The IC50 of each fraction was determined as in vitro tests."}}, "note": "No end group written: not given here.", "data": [{"molecule": "Leu-Ile-Tyr", "values": [{"measurement": "mode of ACE inhibition", "setting": "ACE", "value": "non-competitive"}]}, {"molecule": "VTPALR", "values": [{"measurement": "IC50", "setting": "ACE; from mung bean protein isolate using alcalase", "value": 82.4, "unit": "µM"}]}, {"molecule": "C[C@H](CS)C(=O)N1CCC[C@H]1C(=O)O", "note": "[captopril]", "values": [{"measurement": "antihypertensive activity compared with peanut peptide, long term", "setting": "[1]", "value": "stronger antihypertensive activity during the long term experiment"}]}, {"molecule": "Lys-Ala-Phe-Arg [peanut tetrapeptide of Guang and Phillips]", "values": [{"measurement": "ACE inhibiting activity", "setting": "ACE; peanut tetrapeptide", "value": 16.9, "unit": "µg/mL"}]}, {"molecule": "YLYEIAR", "values": [{"measurement": "mode of ACE inhibition", "setting": "ACE", "value": "non-competitive"}]}, {"molecule": "KLYMRP [Fraction P8, Lys-Leu-Tyr-Met-Arg-Pro]", "values": [{"measurement": "IC50", "setting": "[2]; printed in parentheses beside the mg/mL value, read-out: IC50 (ACE inhibition)", "value": 6.42, "unit": "µM"}, {"measurement": "inhibition at 100 µg/mL", "setting": "[2]; peptide concentration 100 µg/ml, HPLC UV 228 nm", "value": 85.8, "unit": "%"}]}]}
